Laboratory results as given in patent US20030203959A1, “Novel modulators of potassium channels” (4SC AG, priority 2002, published 2003).

Experiments:
[1] = molecular target: BK channels, cloned hSlo (α-hSlo and β-bSlo) in CHO cells (Homo sapiens, UniProt Q12791); experiment: Em-Assay (voltage sensitive dye DiBAC(4)3 fluorescence, membrane potential); type: cell-based; settings: ratio of the compound effect (50 μM) compared to the maximal effect of NS004 (25 or 50 μM); hSlo transfected CHO cells
BK channels, cloned hSlo (α-hSlo and β-bSlo) in CHO cells, sequence (Q12791 whole entry): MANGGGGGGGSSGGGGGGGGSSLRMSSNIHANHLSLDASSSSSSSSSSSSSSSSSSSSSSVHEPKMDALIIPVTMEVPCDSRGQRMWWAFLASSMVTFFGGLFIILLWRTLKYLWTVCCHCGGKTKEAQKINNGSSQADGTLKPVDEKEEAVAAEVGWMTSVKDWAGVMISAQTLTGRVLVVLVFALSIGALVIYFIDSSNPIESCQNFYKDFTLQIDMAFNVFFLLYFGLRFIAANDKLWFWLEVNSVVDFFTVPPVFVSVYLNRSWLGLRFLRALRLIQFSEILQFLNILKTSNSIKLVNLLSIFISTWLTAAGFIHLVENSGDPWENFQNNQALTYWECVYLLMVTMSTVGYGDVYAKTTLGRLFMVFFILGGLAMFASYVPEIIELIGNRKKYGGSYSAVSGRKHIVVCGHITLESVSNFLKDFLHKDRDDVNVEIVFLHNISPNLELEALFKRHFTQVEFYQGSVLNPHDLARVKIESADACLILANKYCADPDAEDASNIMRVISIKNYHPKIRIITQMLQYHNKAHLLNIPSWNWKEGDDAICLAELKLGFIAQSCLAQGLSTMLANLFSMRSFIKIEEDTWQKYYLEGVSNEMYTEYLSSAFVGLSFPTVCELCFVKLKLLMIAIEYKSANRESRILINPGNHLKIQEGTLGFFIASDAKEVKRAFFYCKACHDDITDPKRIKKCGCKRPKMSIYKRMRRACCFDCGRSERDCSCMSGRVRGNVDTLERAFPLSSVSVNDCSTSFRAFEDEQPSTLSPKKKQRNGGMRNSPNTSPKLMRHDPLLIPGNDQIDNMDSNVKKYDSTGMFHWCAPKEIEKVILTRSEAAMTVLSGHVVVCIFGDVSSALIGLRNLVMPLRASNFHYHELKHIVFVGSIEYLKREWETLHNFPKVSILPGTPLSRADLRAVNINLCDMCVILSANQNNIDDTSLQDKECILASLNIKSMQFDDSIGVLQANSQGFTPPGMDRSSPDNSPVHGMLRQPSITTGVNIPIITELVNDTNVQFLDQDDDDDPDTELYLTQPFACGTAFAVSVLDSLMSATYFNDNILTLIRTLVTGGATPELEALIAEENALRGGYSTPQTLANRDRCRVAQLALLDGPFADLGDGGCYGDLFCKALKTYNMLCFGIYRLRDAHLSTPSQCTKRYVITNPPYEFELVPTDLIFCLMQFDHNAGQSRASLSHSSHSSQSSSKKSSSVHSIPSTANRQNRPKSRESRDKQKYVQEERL
BK channels, cloned hSlo (α-hSlo and β-bSlo) in CHO cells, sequence (Q28067 whole entry partner): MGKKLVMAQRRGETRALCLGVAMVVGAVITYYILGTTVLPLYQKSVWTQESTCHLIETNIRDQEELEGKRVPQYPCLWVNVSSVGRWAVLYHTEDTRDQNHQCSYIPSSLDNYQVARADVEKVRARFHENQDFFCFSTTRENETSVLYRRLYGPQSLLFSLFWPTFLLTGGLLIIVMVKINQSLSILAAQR
Source text: The large conductance, voltage dependent and Ca^2+-activated potassium channel BK is a potassium selective ion channel and belongs to the subfamily of KCa channels. Four BK alpha-subunits form a functional channel that can be regulated by intracellular Ca^2+ concentration, membrane voltage, and other mechanisms like phosphorylation states or beta subunits. To test the biological activity of the compounds, we applied two different techniques, a fluorescence based assay using a voltage sensitive dye (Em-Assay) as well as exploiting electrophysiological methods.
CHO cells permanently transfected with cloned hSlo (α-hSlo and β-bSlo), yielding typical BK potassium currents (Zhou et al., Pflügers Arch., 436: 725-734 (1998), were used for the evaluation of compound activity. Activation or inhibition of BK channels in these cells leads to a change of the electrochemical gradient causing a hyperpolarized or depolarised membrane potential, respectively.
To determine changes in the membrane potential of the cells we used the voltage sensitive dye DiBAC(4)3 (Molecular Probes) in a kinetic assay system using a fluorescent plate reader (Manning and Sontheimer, J. Neurosci. Meth., 91: 73-81 (1999). The anionic bis-oxonol DiBAC(4)3 is a voltage sensitive dye which partitions from the extracellular environment into the cell where it reversibly binds to intracellular proteins, a kinetic process depending on the membrane potential of the cell. At depolarised potentials (i.e. at a reduced K^+ efflux due to blocked K^+ channels) the dye accumulates in the cell leading to an increased fluorescence intensity, due to its increased fluorescence if bound to cellular proteins. At hyperpolarized potentials (i.e. at an increased K^+ efflux due to the opening of K^+ channels), the dye partitions out of the cell causing a decreased fluorescence intensity.
hSlo transfected CHO cells where maintained in DMEM supplemented with 10% FCS, 250 μg/ml Geneticin, 100 μg/ml Hygromycin, 1×HT-Supplement, and 1×Non-essential Amino Acids and cultured in a humidified CO2 incubator. After trypsination, cells where plated with a density of 5×10^4 cells per well on a clear 96-well plate and incubated for 24 h. Cells where washed once with PBS, once with PBS containing 20 mM HEPES (adjusted to pH 7.4 with NaOH) and 2 μM DiBAC(4)3 (DPBS-DiMAC solution). 180 μl of the dPBS-DiBAC solution was then added to the cells and the plate incubated for 30-60 min at 37° C. During this time the dye could partition into the cells and reach a certain steady-state distribution, depending on the resting membrane potential. Test and reference compounds were stored as DMSO stock solutions and diluted in dPBS-DiBAC solution to the desired concentration.
Fluorescence intensity (Ex.: 485 nm/Em: 520 nm) of each well was detected in the plate reader (Fluostar, BMG) every 60 seconds. After recording the baseline fluorescence for 7 minutes, 20 μl test and reference compounds were added and the fluorescence intensity was detected for additional 15 minutes. Background was subtracted, data values were normalized and expressed as a change in fluorescence intensity against time. The change in fluorescence intensity caused by the test compounds was evaluated compared to the effect of the reference compound NS004, and the ratio was determined (see Table I).

[2] = molecular target: BK currents, cloned α-hSlo and β-bSlo in CHO cells (Homo sapiens, UniProt Q12791); experiment: Electrophysiological studies (whole-cell patch-clamp, BK currents); type: cell-based; settings: ratio of current increase after application of compound (20 μM) relative to control current before application, steady-state
BK currents, cloned α-hSlo and β-bSlo in CHO cells, sequence (Q12791 whole entry): as the sequence (Q12791 whole entry) above
BK currents, cloned α-hSlo and β-bSlo in CHO cells, sequence (Q28067 whole entry partner): as the sequence (Q28067 whole entry partner) above
Procedure: CHO cells permanently transfected with cloned α-hSlo and β-bSlo were maintained as described above and used for electrophysiologial characterisation. The whole-cell configuration of the patch-clamp technique was used to determine the effect of modulators on BK currents in these cells. The cell line expressing functional BK currents (Zhou et al., Pflügers Arch 436, p.725 (1998)) were plated onto glass cover slips with a density of 1-5×10^4 cells/cover slip, incubated (37° C., 5% CO2) and used for patch-clamp experiments within 24-48 h. Cells were bathed in mammalian ringer solutions containing (in mM): 160 NaCl, 4.5 KCl, 2CaCl2, 1 MgCl2, 10 HEPES, adjusted to pH 7.4, 290-310 mOsim. The internal pipette solution contained (in mM): 160 KCl, 2CaCl2, 1 MgCl2, 10 HEPES, EGTA was added to reach a free [Ca^2+]internal=1×10 ^−6M, adjusted to pH 7.2, 290-310 mOsm.
Borosilicate pipettes with a resistance of 2-3 MΩ were filled with the internal solution and mounted on an appropriate holder. Prior to measurements a recording chamber was mounted onto the cell-plated cover slips and the cells were perfused with a simple syringe driven perfusion system. Compounds were added in the final concentration ([…]) to the bath solution using the same system. An EPC-9 patch-clamp amplifier with Pulse and PulseFit software (HEKA) was used to record and analyze currents.
After addition of the compounds to the bath solution their modulating effect was determined by the increase or decrease of specific BK currents after reaching steady-state relative to the BK current before application of drugs (see Table II).

SMILES	Em effect [1]	Effect (ratio of current increase) [2]
O=[N+]([O-])c1ccccc1-c1ccc2[nH]ccc2c1 [Compound 33]	+ (0-1=+)	
Clc1ccc(-c2ccc3cc[nH]c3c2)s1 [Compound 13]	+ (0-1=+)	
Clc1ccc(-c2ccc3cc[nH]c3c2)cc1 [Compound 58]	+ (0-1=+)	
FC(F)(F)c1ccc(-c2cccc3cc[nH]c23)cc1 [Compound 8]	+ (0-1=+)	
CC(C)(C)c1ccc(-c2ccc3[nH]ccc3c2)cc1 [Compound 32]	+ (0-1=+)	
c1cc2cc(-c3ccc4[nH]ccc4c3)ccc2[nH]1 [Compound 43]	+ (0-1=+)	
c1cc2cc(-c3ccc4c(c3)OCO4)ccc2[nH]1 [Compound 50]	++ (>1=++)	
Clc1ccccc1-c1cccc2cc[nH]c12 [Compound 9]	+ (0-1=+)	
CN(C)c1ccc(-c2ccc3cc[nH]c3c2)cc1 [Compound 17]	++ (>1=++)	
FC(F)(F)Oc1ccc(-c2ccc3[nH]ccc3c2)cc1 [Compound 1]	++ (>1=++)	++ (>1,1-1.2=++)
CN(C)c1ccc(-c2ccc3[nH]ccc3c2)cc1 [Compound 2]	+ (0-1=+)	+ (1-1.1=+)
COc1c(C)cc(-c2ccc3[nH]ccc3c2)cc1C [Compound 51]	++ (>1=++)	
COc1ccccc1-c1cccc2cc[nH]c12 [Compound 7]	+ (0-1=+)	
FC(F)(F)c1ccc(-c2ccc3[nH]ccc3c2)cc1 [Compound 4]	++ (>1=++)	++ (>1,1-1.2=++)
Clc1ccc(-c2cccc3[nH]ccc23)s1 [Compound 22]	+ (0-1=+)	++ (>1,1-1.2=++)
FC(F)(F)c1cc(-c2ccc3cc[nH]c3c2)cc(C(F)(F)F)c1 [Compound 61]	+ (0-1=+)	

SMILES	Em effect [1]	Effect (ratio of current increase) [2]
c1cc2cc(-c3ccc4cc[nH]c4c3)ccc2[nH]1 [Compound 53]	++ (>1=++)	
FC(F)(F)c1ccc(-c2ccc3cc[nH]c3c2)cc1 [Compound 14]	+ (0-1=+)	
FC(F)(F)Oc1cccc(-c2ccc3[nH]ccc3c2)c1 [Compound 34]	+ (0-1=+)	
Clc1ccc(-c2cccc3cc[nH]c23)s1 [Compound 6]	+ (0-1=+)	
Clc1ccc(-c2ccc3[nH]ccc3c2)cc1 [Compound 46]	++ (>1=++)	
FC(F)(F)Oc1cccc(-c2cccc3cc[nH]c23)c1 [Compound 38]	+ (0-1=+)	
COc1ccc(-c2ccc3[nH]ccc3c2)c(OC)c1 [Compound 48]	++ (>1=++)	
FC(F)(F)c1cc(-c2cccc3[nH]ccc23)cc(C(F)(F)F)c1 [Compound 20]	+ (0-1=+)	
CN(C)c1ccc(-c2cccc3cc[nH]c23)cc1 [Compound 11]	++ (>1=++)	
CS(=O)(=O)c1ccc(-c2ccc3[nH]ccc3c2)cc1 [Compound 29]	+ (0-1=+)	
Fc1ccc(-c2cccc3cc[nH]c23)c(F)c1 [Compound 10]	+ (0-1=+)	
COc1ccc(-c2ccc3[nH]ccc3c2)cc1 [Compound 54]	++ (>1=++)	
CC(C)(C)c1ccc(-c2ccc3cc[nH]c3c2)cc1 [Compound 62]	+ (0-1=+)	
COc1ccc(-c2ccc3cc[nH]c3c2)cn1 [Compound 35]	+ (0-1=+)	
CC(=O)c1cccc(-c2ccc3[nH]ccc3c2)c1 [Compound 49]	+ (0-1=+)	
c1ccc(-c2ccc3[nH]ccc3c2)nc1 [Compound 52]	+ (0-1=+)	

Continued, values first:

Em effect [1]	Effect (ratio of current increase) [2]	SMILES
+ (0-1=+)		FC(F)(F)Oc1ccc(-c2cccc3[nH]ccc23)cc1 [Compound 28]
+ (0-1=+)		c1ccc(COc2ccc(-c3cccc4[nH]ccc34)cc2)cc1 [Compound 36]
+ (0-1=+)		COc1ccccc1-c1ccc2cc[nH]c2c1 [Compound 19]
+ (0-1=+)		Clc1ccccc1-c1cccc2[nH]ccc12 [Compound 26]
++ (>1=++)	++ (>1,1-1.2=++)	COc1ccccc1-c1ccc2[nH]ccc2c1 [Compound 5]
+ (0-1=+)		c1cc(-c2ccc3[nH]ccc3c2)c2cc[nH]c2c1 [Compound 47]
+ (0-1=+)		c1ccc(Oc2ccc(-c3cccc4[nH]ccc34)cc2)cc1 [Compound 57]
++ (>1=++)		c1ccc2c(-c3ccc4[nH]ccc4c3)cccc2c1 [Compound 44]
+ (0-1=+)		Clc1ccccc1-c1ccc2cc[nH]c2c1 [Compound 15]
++ (>1=++)	+++ (>1.2=+++)	Fc1ccc(-c2ccc3[nH]ccc3c2)c(F)c1 [Compound 3]
+ (0-1=+)		c1ccc(-c2cccc(-c3ccc4cc[nH]c4c3)c2)cc1 [Compound 60]
+ (0-1=+)		O=Cc1ccccc1-c1ccc2[nH]ccc2c1 [Compound 31]
++ (>1=++)	+ (1-1.1=+)	Clc1ccccc1-c1ccc2[nH]ccc2c1 [Compound 30]
+ (0-1=+)		Fc1cccc(-c2ccc3cc[nH]c3c2)c1 [Compound 37]
+ (0-1=+)		c1cc(-c2ccsc2)c2cc[nH]c2c1 [Compound 23]
+ (0-1=+)		Fc1cc(-c2cccc3[nH]ccc23)ccc1-c1ccccc1 [Compound 21]
++ (>1=++)		CC(C)(C)c1ccc(-c2cccc3[nH]ccc23)cc1 [Compound 39]
+ (0-1=+)		Fc1ccc(-c2ccc3cc[nH]c3c2)c(F)c1 [Compound 16]
+ (0-1=+)		c1ccc(-c2ccc3[nH]ccc3c2)cc1 [Compound 59]
+ (0-1=+)		FC(F)(F)c1ccc(-c2cccc3[nH]ccc23)cc1 [Compound 25]
+ (0-1=+)		COc1ccccc1-c1cccc2[nH]ccc12 [Compound 24]
+ (0-1=+)		COc1cccc(-c2cccc3[nH]ccc23)c1 [Compound 56]
+ (0-1=+)		Fc1ccc(-c2cccc3[nH]ccc23)c(F)c1 [Compound 55]
+ (0-1=+)		COc1ccc(-c2cccc3[nH]ccc23)cc1 [Compound 42]
